Test results taken from patent publication US9549921B2, “Heterocyclic compounds and methods of use thereof for the treatment of hepatitis C” (priority 2014, dated 2017).
Read-outs that look alike come from different tables or passages of the source.

Tests used:
HCV replicon genotype 1b = assay: HCV replicon assay, genotype 1b (cell ELISA for NS3/4A); type: cell-based, hepatitis C virus
In short: (§1)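 Stable neomycin-resistant replicon cell lines (genotype 1a or 1b) incubated 96 h with compound dilution series without G418. After washing and lysis, replication measured by cell ELISA for replicon-encoded NS3/4A protein; IC50 as % of DMSO control via four-parameter fit.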

HCV replicon genotype 1a = assay: HCV replicon assay, genotype 1a (cell ELISA for NS3/4A); type: cell-based, hepatitis C virus
In short: as §1

[1] = Hepatitis C virus, 96 h, read-out: 1b IC50 (nM), HCV genotype 1b replicon cells, 96 hours incubation, NS3/4A ELISA readout, % of DMSO control
[2] = Hepatitis C virus, 96 h, read-out: 1a IC50 (nM), HCV genotype 1a replicon cells, 96 hours incubation, NS3/4A ELISA readout, % of DMSO control

Row | SMILES | IC50 (HCV replicon genotype 1b; [1]) [nM] | IC50 (HCV replicon genotype 1a; [2]) [nM] | also measured
1 | CNC(=O)c1c(-c2ccc(F)cc2)oc2cc(N(C)S(C)(=O)=O)c([C@H]3CCCN(S(=O)(=O)c4cc5cccc(F)c5[nH]4)C3)cc12 [Example 3, (R)-5-(1-((7-fluoro-1H-indol-2-yl)sulfonyl)piperidin-3-yl)-2-(4-fluorophenyl)-N-methyl-6-(N-methylmethylsulfonamido)benzofuran-3-carboxamide] | 109 | 148 | –
2 | CNC(=O)c1c(-c2ccc(F)cc2)oc2cc(N(C)S(C)(=O)=O)c([C@H]3CCCN(c4nc5c(C#N)cccc5o4)C3)cc12 [Example 4, (R)-5-(1-(4-cyanobenzo[d]oxazol-2-yl)piperidin-3-yl)-2-(4-fluorophenyl)-N-methyl-6-(N-methylmethylsulfonamido)benzofuran-3-carboxamide] | 6.53 | 7.03 | –
3 | CNC(=O)c1c(-c2ccc(F)cc2)oc2cc(N(C)S(C)(=O)=O)c([C@@H]3CCCN(c4nc5c(C#N)cccc5o4)C3)cc12 [Example 5, (S)-5-(1-(4-cyanobenzo[d]oxazol-2-yl)piperidin-3-yl)-2-(4-fluorophenyl)-N-methyl-6-(N-methylmethylsulfonamido)benzofuran-3-carboxamide] | 19.3 | 53.7 | –
4 | CNC(=O)c1c(-c2ccc(F)cc2)oc2cc(N(C)S(C)(=O)=O)c(C3C[C@@H](c4nc5c(F)cccc5o4)N(C)C3)cc12 (stereo partly drawn) [Example 12, 5-((5S)-5-(4-fluorobenzo[d]oxazol-2-yl)-1-methylpyrrolidin-3-yl)-2-(4-fluorophenyl)-N-methyl-6-(N-methylmethylsulfonamido)benzofuran-3-carboxamide] | 37.8 | 92.8 | –
5 | CNC(=O)c1c(-c2ccc(F)cc2)oc2cc(N(C)S(C)(=O)=O)c(C3CNCC(c4cc5c(F)cccc5[nH]4)N3)cc12 (stereo not shown) [Example 13, 5-(6-(4-fluoro-1H-indol-2-yl)piperazin-2-yl)-2-(4-fluorophenyl)-N-methyl-6-(N-methylmethylsulfonamido)benzofuran-3-carboxamide] | 165 | 140 | –
6 | CNC(=O)c1c(-c2ccc(F)cc2)oc2cc(N(C)S(C)(=O)=O)c(C3CCN(C)C(c4cc5c(F)cccc5[nH]4)C3)cc12 (stereo not shown) [Example 16, 5-(2-(4-fluoro-1H-indol-2-yl)-1-methylpiperidin-4-yl)-2-(4-fluorophenyl)-N-methyl-6-(N-methylmethylsulfonamido)benzofuran-3-carboxamide] | 106 | 333 | –
7 | CNC(=O)c1c(-c2ccc(F)cc2)oc2cc(N(C)S(C)(=O)=O)c([C@H]3CCCN(C(=O)c4cc5cccc(F)c5[nH]4)C3)cc12 [Example 31, (R)-5-(1-(7-fluoro-1H-indole-2-carbonyl)piperidin-3-yl)-2-(4-fluorophenyl)-N-methyl-6-(N-methylmethylsulfonamido)benzofuran-3-carboxamide] | 9.38 | 17.1 | –
8 | CNC(=O)c1c(-c2ccc(F)cc2)oc2cc(N(C)S(C)(=O)=O)c([C@@H]3CCCN(C(=O)c4cc5cccc(F)c5[nH]4)C3)cc12 [Example 32, (S)-5-(1-(7-fluoro-1H-indole-2-carbonyl)piperidin-3-yl)-2-(4-fluorophenyl)-N-methyl-6-(N-methylmethylsulfonamido)benzofuran-3-carboxamide] | 19.2 | 53.1 | –
9 | CCn1c(C(=O)N2CCC[C@@H](c3cc4c(C(=O)NC)c(-c5ccc(F)cc5)oc4cc3N(C)S(C)(=O)=O)C2)cc2c(F)cccc21 [Example 33, (S)-5-(1-(1-ethyl-4-fluoro-1H-indole-2-carbonyl)piperidin-3-yl)-2-(4-fluorophenyl)-N-methyl-6-(N-methylmethylsulfonamido)benzofuran-3-carboxamide] | 196 | 130 | –
10 | CCn1c(C(=O)N2CCC[C@H](c3cc4c(C(=O)NC)c(-c5ccc(F)cc5)oc4cc3N(C)S(C)(=O)=O)C2)cc2c(F)cccc21 [Example 34, (R)-5-(1-(1-ethyl-4-fluoro-1H-indole-2-carbonyl)piperidin-3-yl)-2-(4-fluorophenyl)-N-methyl-6-(N-methylmethylsulfonamido)benzofuran-3-carboxamide] | 65.3 | 84.1 | –
11 | CNC(=O)c1c(-c2ccc(F)cc2)oc2cc(N(C)S(C)(=O)=O)c([C@@H]3CCCN(C(=O)c4nc5ncccc5[nH]4)C3)cc12 [Example 35, (S)-5-(1-(1H-imidazo[4,5-b]pyridine-2-carbonyl)piperidin-3-yl)-2-(4-fluorophenyl)-N-methyl-6-(N-methylmethylsulfonamido)benzofuran-3-carboxamide] | 48.9 | 71.6 | –
12 | CNC(=O)c1c(-c2ccc(F)cc2)oc2cc(N(C)S(C)(=O)=O)c([C@H]3CCCN(C(=O)c4nc5ncccc5[nH]4)C3)cc12 [Example 36, (R)-5-(1-(1H-imidazo[4,5-b]pyridine-2-carbonyl)piperidin-3-yl)-2-(4-fluorophenyl)-N-methyl-6-(N-methylmethylsulfonamido)benzofuran-3-carboxamide] | 286 | 269 | –
13 | CNC(=O)c1c(-c2ccc(F)cc2)oc2cc(N(C)S(C)(=O)=O)c([C@@H]3CCCN(C(=O)c4[nH]c5c(F)cccc5c4C)C3)cc12 [Example 37, (S)-5-(1-(7-fluoro-3-methyl-1H-indole-2-carbonyl)piperidin-3-yl)-2-(4-fluorophenyl)-N-methyl-6-(N-methylmethylsulfonamido)benzofuran-3-carboxamide] | 92.8 | 162 | –
14 | CNC(=O)c1c(-c2ccc(F)cc2)oc2cc(N(C)S(C)(=O)=O)c([C@H]3CCCN(C(=O)c4[nH]c5c(F)cccc5c4C)C3)cc12 [Example 38, (R)-5-(1-(7-fluoro-3-methyl-1H-indole-2-carbonyl)piperidin-3-yl)-2-(4-fluorophenyl)-N-methyl-6-(N-methylmethylsulfonamido)benzofuran-3-carboxamide] | 116 | 277 | –
15 | CNC(=O)c1c(-c2ccc(F)cc2)oc2cc(N(C)S(C)(=O)=O)c([C@@H]3CCCN(C(=O)c4cc5cccc(C(F)(F)F)c5[nH]4)C3)cc12 [Example 39, (S)-2-(4-fluorophenyl)-N-methyl-6-(N-methylmethylsulfonamido)-5-(1-(7-(trifluoromethyl)-1H-indole-2-carbonyl)piperidin-3-yl)benzofuran-3-carboxamide] | 36.4 | 268 | –
16 | CNC(=O)c1c(-c2ccc(F)cc2)oc2cc(N(C)S(C)(=O)=O)c([C@H]3CCCN(C(=O)c4cc5cccc(C(F)(F)F)c5[nH]4)C3)cc12 [Example 40, (R)-2-(4-fluorophenyl)-N-methyl-6-(N-methylmethylsulfonamido)-5-(1-(7-(trifluoromethyl)-1H-indole-2-carbonyl)piperidin-3-yl)benzofuran-3-carboxamide] | 27.6 | 142 | –
17 | CNC(=O)c1c(-c2ccc(F)cc2)oc2cc(N(C)S(C)(=O)=O)c(C3CCCN(c4nc5cc(F)ccc5o4)C3)cc12 (stereo not shown) [Example 51] | – | – | IC50 (HCV replicon genotype 1b; HCV genotype 1b replicon cells, 96 hours incubation, NS3/4A ELISA readout, % of DMSO control, read-out: 1b IC50): 7.12 nM; IC50 (HCV replicon genotype 1a; HCV genotype 1a replicon cells, 96 hours incubation, NS3/4A ELISA readout, % of DMSO control, read-out: 1a IC50): 4.99 nM
18 | CNC(=O)c1c(-c2ccc(F)cc2)oc2cc(N(C)S(C)(=O)=O)c([C@@H]3CCCN(C(=O)C4CC4c4ccccn4)C3)cc12 (stereo partly shown) [Example 60, 2-(4-fluorophenyl)-N-methyl-6-[methyl(methylsulfonyl)amino]-5-{1-[(2-pyridin-2-ylcyclopropyl)carbonyl]piperidin-3-yl}-1-benzofuran-3-carboxamide] | – | – | IC50 (HCV replicon genotype 1b; read-out: 1b IC50, HCV genotype 1b replicon cells, 96 hours incubation, NS3/4A ELISA readout, % of DMSO control): 40.3 nM; IC50 (HCV replicon genotype 1a; read-out: 1a IC50, HCV genotype 1a replicon cells, 96 hours incubation, NS3/4A ELISA readout, % of DMSO control): 116 nM
19 | CNC(=O)c1c(-c2ccc(F)cc2)oc2cc(N(C)S(C)(=O)=O)c([C@@H]3CCCN(C(=O)c4oc5ccc(F)cc5c4C)C3)cc12 [Example 62, 5-{1-[(5-fluoro-3-methyl-1-benzofuran-2-yl)carbonyl]piperidin-3-yl}-2-(4-fluorophenyl)-N-methyl-6-[methyl(methylsulfonyl)amino]-1-benzofuran-3-carboxamide] | 41.2 | 192 | –
20 | CNC(=O)c1c(-c2ccc(F)cc2)oc2cc(N(C)S(C)(=O)=O)c([C@@H]3CCCN(C(=O)C=C(C)C)C3)cc12 [Example 63, 2-(4-fluorophenyl)-N-methyl-5-[1-(3-methylbut-2-enoyl)piperidin-3-yl]-6-[methyl(methylsulfonyl)amino]-1-benzofuran-3-carboxamide] | 68.1 | 156 | –
21 | CNC(=O)c1c(-c2ccc(F)cc2)oc2cc(N(C)S(C)(=O)=O)c([C@@H]3CCCN(C(=O)c4cc5c(OC)cccc5[nH]4)C3)cc12 [Example 64, 2-(4-fluorophenyl)-5-{1-[(4-methoxy-1H-indol-2-yl)carbonyl]piperidin-3-yl}-N-methyl-6-[methyl(methylsulfonyl)amino]-1-benzofuran-3-carboxamide] | 40.7 | 135 | –
22 | CNC(=O)c1c(-c2ccc(F)cc2)oc2cc(N(C)S(C)(=O)=O)c([C@@H]3CCCN(C(=O)c4cc5ncccc5[nH]4)C3)cc12 [Example 65, 2-(4-fluorophenyl)-N-methyl-6-[methyl(methylsulfonyl)amino]-5-[1-(1H-pyrrolo[3,2-b]pyridin-2-ylcarbonyl)piperidin-3-yl]-1-benzofuran-3-carboxamide] | 46.3 | 140 | –
23 | CNC(=O)c1c(-c2ccc(F)cc2)oc2cc(N(C)S(C)(=O)=O)c([C@@H]3CCCN(C(=O)c4cc5ccccc5n4C)C3)cc12 [Example 67, 2-(4-fluorophenyl)-N-methyl-5-{1-[(1-methyl-1H-indol-2-yl)carbonyl]piperidin-3-yl}-6-[methyl(methylsulfonyl)amino]-1-benzofuran-3-carboxamide] | 87.4 | 156 | –
